Source: patent US12351580B2, “NLRP3 modulators” (Innate Tumor Immunity, Inc., priority 2017, dated 2025)
pEC50: −log10 of the molar value.

Tests used:
TLR7 = biological target: T1, TLR7 (Homo sapiens, UniProt Q9NYK1); experiment: In vitro human TLR7 binding reporter assay (HEK-Blue, NF-kB/AP1-inducible SEAP); format: cell-based; details: activity range symbols
T1 construct: host or cells: HEK-Blue cells (human HEK) co-expressing TLR7 and an NF-kB/AP1-inducible SEAP reporter
T1 sequence (Q9NYK1 27-1049): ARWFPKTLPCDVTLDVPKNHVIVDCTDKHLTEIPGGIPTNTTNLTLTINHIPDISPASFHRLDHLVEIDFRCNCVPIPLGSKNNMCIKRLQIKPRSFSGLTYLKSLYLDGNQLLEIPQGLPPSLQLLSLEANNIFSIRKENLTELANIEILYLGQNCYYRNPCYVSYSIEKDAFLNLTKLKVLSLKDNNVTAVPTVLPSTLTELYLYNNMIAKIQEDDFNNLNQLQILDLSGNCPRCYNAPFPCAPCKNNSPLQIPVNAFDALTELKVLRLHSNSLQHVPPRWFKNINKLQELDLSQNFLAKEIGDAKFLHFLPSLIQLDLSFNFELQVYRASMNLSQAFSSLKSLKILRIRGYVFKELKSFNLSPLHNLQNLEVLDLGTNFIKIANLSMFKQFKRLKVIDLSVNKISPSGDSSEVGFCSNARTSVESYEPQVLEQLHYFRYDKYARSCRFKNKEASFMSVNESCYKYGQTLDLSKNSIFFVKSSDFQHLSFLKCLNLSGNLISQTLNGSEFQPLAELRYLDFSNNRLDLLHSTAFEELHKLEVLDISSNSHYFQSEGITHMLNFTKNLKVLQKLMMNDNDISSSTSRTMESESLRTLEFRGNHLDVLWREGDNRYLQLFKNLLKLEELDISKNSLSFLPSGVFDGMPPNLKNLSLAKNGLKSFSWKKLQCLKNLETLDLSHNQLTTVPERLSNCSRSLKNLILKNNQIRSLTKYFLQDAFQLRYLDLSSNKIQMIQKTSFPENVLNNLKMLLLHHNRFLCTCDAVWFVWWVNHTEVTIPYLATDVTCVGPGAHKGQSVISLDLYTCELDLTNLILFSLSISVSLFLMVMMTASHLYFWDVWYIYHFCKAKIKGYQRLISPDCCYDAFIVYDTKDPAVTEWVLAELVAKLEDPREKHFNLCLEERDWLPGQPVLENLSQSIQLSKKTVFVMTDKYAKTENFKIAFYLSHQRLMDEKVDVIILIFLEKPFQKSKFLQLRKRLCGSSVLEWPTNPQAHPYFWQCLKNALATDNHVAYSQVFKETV
In short: (§1)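 Reporter cells are plated at 15,000 per well and rested 24 h. Next day, test compounds or DMSO are dispensed, followed by 18 h incubation at 37 °C, 5% CO2.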

TLR8 = biological target: T2, TLR8 (Homo sapiens, UniProt Q9NR97); experiment: In vitro human TLR8 binding reporter assay (HEK-Blue, NF-kB/AP1-inducible SEAP); format: cell-based; details: activity range symbols
T2 construct: host or cells: HEK-Blue cells (human HEK) co-expressing TLR8 and an NF-kB/AP1-inducible SEAP reporter
T2 sequence (Q9NR97 27-1041): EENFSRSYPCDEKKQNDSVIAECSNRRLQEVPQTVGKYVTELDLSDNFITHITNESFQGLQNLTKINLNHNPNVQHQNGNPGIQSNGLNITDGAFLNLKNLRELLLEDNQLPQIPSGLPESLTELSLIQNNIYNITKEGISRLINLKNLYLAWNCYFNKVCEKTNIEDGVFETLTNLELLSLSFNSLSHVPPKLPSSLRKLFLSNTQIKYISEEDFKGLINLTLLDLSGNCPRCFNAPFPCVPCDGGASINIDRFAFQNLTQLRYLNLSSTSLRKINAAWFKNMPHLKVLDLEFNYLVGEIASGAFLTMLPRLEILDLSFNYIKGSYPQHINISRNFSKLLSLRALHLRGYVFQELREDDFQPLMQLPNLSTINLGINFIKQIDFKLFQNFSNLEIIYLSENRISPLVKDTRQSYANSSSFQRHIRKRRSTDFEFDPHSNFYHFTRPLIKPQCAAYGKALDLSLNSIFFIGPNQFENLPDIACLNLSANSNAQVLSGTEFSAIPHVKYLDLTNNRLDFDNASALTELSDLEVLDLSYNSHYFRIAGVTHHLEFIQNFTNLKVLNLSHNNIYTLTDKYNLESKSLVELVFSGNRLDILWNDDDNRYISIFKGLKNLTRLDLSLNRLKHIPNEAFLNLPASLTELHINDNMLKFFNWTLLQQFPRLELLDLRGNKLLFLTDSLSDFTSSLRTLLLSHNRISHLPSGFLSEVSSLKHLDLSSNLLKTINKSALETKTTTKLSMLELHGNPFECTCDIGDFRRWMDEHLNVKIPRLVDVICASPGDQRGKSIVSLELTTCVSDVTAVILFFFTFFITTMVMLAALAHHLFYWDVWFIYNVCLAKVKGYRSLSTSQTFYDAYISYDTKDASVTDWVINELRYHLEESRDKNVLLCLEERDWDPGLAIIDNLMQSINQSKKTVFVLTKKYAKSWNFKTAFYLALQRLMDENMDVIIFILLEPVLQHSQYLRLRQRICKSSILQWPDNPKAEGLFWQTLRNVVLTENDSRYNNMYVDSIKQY
In short: as §1

Structure (SMILES)	pEC50 (TLR7)	pEC50 (TLR8)
CCC(=O)NCc1nc2c(N)nc3cc(-c4cc[nH]n4)ccc3c2[nH]1 [Compound 111]	< 4.00	< 4.00
CN(Cc1nc2c(N)nc3cc(-c4cc[nH]n4)ccc3c2[nH]1)S(C)(=O)=O [Compound 115]	< 4.00	< 4.00
Nc1nc2cc(-c3cccs3)ccc2c2[nH]c(CN3CCCC3=O)nc12 [Compound 309, 1-[(4-amino-7-thiophen-2-yl-1H-imidazo[4,5-c]quinolin-2-yl)methyl]pyrrolidin-2-one]	< 4.00	< 4.00
Nc1nc2cc(Br)ccc2c2[nH]c(CN3CC(c4ccccc4)CC3=O)nc12 (stereo not drawn) [Compound 316, 1-[(4-amino-7-bromo-1H-imidazo[4,5-c]quinolin-2-yl)methyl]-4-phenylpyrrolidin-2-one]	< 4.00	< 4.00
Nc1nc2cc(-c3cccnc3Cl)ccc2c2[nH]c(CN3CCCC3=O)nc12 [Compound 320, 1-[[4-amino-7-(2-chloropyridin-3-yl)-1H-imidazo[4,5-c]quinolin-2-yl]methyl]pyrrolidin-2-one]	< 4.00	< 4.00
Nc1nc2cc(-c3cnccc3Cl)ccc2c2[nH]c(CN3CCCC3=O)nc12 [Compound 321, 1-[[4-amino-7-(4-chloropyridin-3-yl)-1H-imidazo[4,5-c]quinolin-2-yl]methyl]pyrrolidin-2-one]	4.00 to 4.70	< 4.00
N#Cc1ccc(-c2ccc3c(c2)nc(N)c2nc(CN4CCCC4=O)[nH]c23)cn1 [Compound 327, 5-[4-amino-2-[(2-oxopyrrolidin-l-yl)methyl]-1H-imidazo[4,5-c]quinolin-7-yl]pyridine-2-carbonitrile]	< 4.00	< 4.00
Nc1nc2cc(-c3cncc(Cl)c3)ccc2c2[nH]c(CN3CCCC3=O)nc12 [Compound 328, 1-[[4-amino-7-(5-chloropyridin-3-yl)-1H-imidazo[4,5-c]quinolin-2-yl]methyl]pyrrolidin-2-one]	< 4.00	< 4.00
Nc1nc2cc(-c3ccc(F)nc3)ccc2c2[nH]c(CN3CCCC3=O)nc12 [Compound 330, 1-[[4-amino-7-(6-fluoropyridin-3-yl)-1H-imidazo[4,5-c]quinolin-2-yl]methyl]pyrrolidin-2-one]	< 4.00	< 4.00
CN(C)C(=O)CCCn1c(CN2CCCC2=O)nc2c(N)nc3cc(-c4cccnc4)ccc3c21 [Compound 340]	< 4.00	< 4.00
COC(=O)CCCn1c(CN2CCCC2=O)nc2c(N)nc3cc(Br)ccc3c21 [Compound 341]	< 4.00	< 4.00
CN(C)Cc1nc2c(N)nc3cc(-c4cc[nH]n4)ccc3c2[nH]1 [Compound 348]	< 4.00	< 4.00
Nc1nc2cc(-n3cccn3)ccc2c2[nH]c(CN3C[C@@H](c4ccccc4)CC3=O)nc12 [Compound 357]	< 4.00	< 4.00
Nc1nc2cc(-n3cccn3)ccc2c2[nH]c(CN3C[C@H](c4ccccc4)CC3=O)nc12 [Compound 358]	< 4.00	< 4.00
Nc1nc2cc(-c3cc[nH]n3)ccc2c2[nH]c(CN3C(=O)OCC3c3ccccc3)nc12 (stereo not drawn) [Compound 363]	< 4.00	< 4.00
Nc1nc2cc(-c3cc[nH]n3)ccc2c2[nH]c(CN3CCOC3=O)nc12 [Compound 365]	< 4.00	< 4.00
CN1CCN(Cc2nc3c(N)nc4cc(-c5cc[nH]n5)ccc4c3[nH]2)C1=O [Compound 368]	< 4.00	< 4.00

Continued, values first:

pEC50 (TLR7)	pEC50 (TLR8)	Structure (SMILES)
< 4.00	< 4.00	CCN(Cc1nc2c(N)nc3cc(-c4cc[nH]n4)ccc3c2[nH]1)C(=O)c1nccs1 [Compound 114]
4.00 to 4.70	< 4.00	CC(c1nc2c(N)nc3cc(-n4cccn4)ccc3c2[nH]1)N1CCCC1=O (stereo not drawn) [Compound 117]
< 4.00	< 4.00	CCN(Cc1nc2c(N)nc3cc(-c4cc[nH]n4)ccc3c2[nH]1)C(=O)C1CC1 [Compound 118]
< 4.00	< 4.00	N#Cc1ccccc1-c1ccc2c(c1)nc(N)c1nc(CN3CCCC3=O)[nH]c12 [Compound 315, 2-[4-amino-2-[(2-oxopyrrolidin-l-yl)methyl]-1H-imidazo[4,5-c]quinolin-7-yl]benzonitrile]
< 4.00	< 4.00	COc1ncccc1-c1ccc2c(c1)nc(N)c1nc(CN3CCCC3=O)[nH]c12 [Compound 319, 1-[[4-amino-7-(2-methoxypyridin-3-yl)-1H-imidazo[4,5-c]quinolin-2-yl]methyl]pyrrolidin-2-one]
< 4.00	< 4.00	Nc1nc2cc(-c3ccc(C(F)(F)F)nc3)ccc2c2[nH]c(CN3CCCC3=O)nc12 [Compound 324, 1-[[4-amino-746-(trifluoromethyppyridin-3-yl]-1H-imidazo[4,5-c]quinolin-2-yl]methyl]pyrrolidin-2-one]
< 4.00	< 4.00	N#Cc1cncc(-c2ccc3c(c2)nc(N)c2nc(CN4CCCC4=O)[nH]c23)c1 [Compound 326, 5-[4-amino-2-[(2-oxopyrrolidin-l-yl)methyl]-1H-imidazo[4,5-c]quinolin-7-yl]pyridine-3-carbonitrile]
< 4.00	< 4.00	Nc1nc2cc(-c3cncc(F)c3)ccc2c2[nH]c(CN3CCCC3=O)nc12 [Compound 331, 1-[[4-amino-7-(5-fluoropyridin-3-yl)-1H-imidazo[4,5-c]quinolin-2-yl]methyl]pyrrolidin-2-one]
< 4.00	< 4.00	Nc1nc2cc(C3CCCCCC3)ccc2c2[nH]c(CN3CCCC3=O)nc12 [Compound 332, 1-[(4-amino-7-cycloheptyl-1H-imidazo[4,5-c]quinolin-2-yl)methyl]pyrrolidin-2-one]
< 4.00	< 4.00	Nc1nc2cc(-c3cccnc3)ccc2c2[nH]c(CN3CC(c4ccccc4)CC3=O)nc12 (stereo not drawn) [Compound 333, 1-[(4-amino-7-pyridin-3-yl-1H-imidazo[4,5-c]quinolin-2-yl)methyl]-4-phenylpyrrolidin-2-one]
< 4.00	< 4.00	COC(=O)CCCn1c(CN2CCCC2=O)nc2c(N)nc3ccccc3c21 [Compound 335]
< 4.00	< 4.00	CN(C)C(=O)CCCn1c(CN2CCCC2=O)nc2c(N)nc3cc(Cl)ccc3c21 [Compound 337]
< 4.00	< 4.00	COC(=O)CCCn1c(CN2CCCC2=O)nc2c(N)nc3cc(-c4cccnc4)ccc3c21 [Compound 342]
< 4.00	< 4.00	Nc1nc2ccccc2c2[nH]c(CN3CCCCC3=O)nc12 [Compound 346]
< 4.00	< 4.00	COC(=O)CCCn1c(CN2CCCCC2=O)nc2c(N)nc3ccccc3c21 [Compound 347]
< 4.00	< 4.00	CCN(C)Cc1nc2c(N)nc3cc(-c4cc[nH]n4)ccc3c2[nH]1 [Compound 349]
